Measured values from patent US8524750B2, “(Pyrazol-3-yl)-1,3,4-thiadiazol-2-amine and (pyrazol-3-yl)-1,3,4-thiazol-2-amine compounds” (Glaxo Group Limited, priority 2009, dated 2013).
Values after ≈ are worked out from the molar mass of the structure shown. Read-outs that look alike come from different tables or passages of the source.

Columns and labels:
[1] = target: T1, Mycobacterium tuberculosis InhA (Mycobacterium tuberculosis, UniProt P9WGR1); test: Mycobacterium tuberculosis InhA Inhibition Assay (Enzyme Assay); type: biochemical; conditions: 5 nM InhA, 50 μM DDCoA, 50 μM NADH, PIPES buffer pH 6.8, initial velocities of NADH consumption
T1 construct: made in house; host or cells: E. coli
Protocol: Mycobacterium tuberculosis InhA Inhibition Assay (Enzyme Assay)
InhA is able to reduce 2-trans enoyl-CoA esters with concomitant oxidation of NADH to NAD^+. The assay format is based on the kinetic detection of NADH consumption.
Assay for InhA inhibition is carried out with mycobacterium recombinant protein expressed and purified form E. coli. Standard assay conditions for the determination of kinetic constants and inhibitors activity use 5 nM of InhA, 50 μM of Dodecenoyl-CoA synthesized and purified as described by Quernard et al (DDCoA) and 50 μM of NADH as substrates, and it is carried out in 30 mM PIPES buffer pH 6.8, containing 0.05% of BSA. […] Triclosan is used as positive control in every experiment. One μl of compounds is added to the wells containing 25 μl of the DDCoA+NADH mix, the reaction is started by adding 50 μl of the enzyme solution. Fluorescence from NADH is followed at room temperature during 20 minutes in a fluorescent plate reader (excitation at 340 nm; emission at 480 nm). IC50 values are determined using initial velocities of NADH consumption.
Quernard A, Sacchettini J C, Dessen A, et al. Enzymatic characterization of the target for isoniazid in Mycobacterium tuberculosis. Biochemistry 1995; 34:8235-41.

[2] = tested on: Mycobacterium tuberculosis H37Rv; test: Mycobacterium tuberculosis H37Rv Inhibition Assay (Whole Cell Assay); type: cell-based; conditions: ATCC 25618 / H37Rv, H37Rv strain (ATCC25618), Middlebrook 7H9, six days at 37° C., resazurin fluorescence after 48 hours

T1 sequence (P9WGR1 whole entry, looked up): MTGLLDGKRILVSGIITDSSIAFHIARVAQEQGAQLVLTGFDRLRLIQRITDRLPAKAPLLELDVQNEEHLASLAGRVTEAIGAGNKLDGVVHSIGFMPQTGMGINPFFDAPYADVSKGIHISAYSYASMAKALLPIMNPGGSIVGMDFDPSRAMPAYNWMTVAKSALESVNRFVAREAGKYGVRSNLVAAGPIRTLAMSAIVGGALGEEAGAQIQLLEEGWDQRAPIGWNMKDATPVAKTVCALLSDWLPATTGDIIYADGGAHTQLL

Structure (SMILES) | IC50 ([1]; read-out: IC50 value) | MIC [2] | IC50 ([1]; IC50 value)
Cc1ccn(C(C)c2nnc(Nc3ccn(Cc4cccc(C)c4F)n3)s2)n1 (stereo not drawn) [Example 13, N-{1-[(2-fluoro-3-methylphenyl)methyl]-1H-pyrazol-3-yl}-5-[1-(3-methyl-1H-pyrazol-1-yl)ethyl]-1,3,4-thiadiazol-2-amine] | < 0.126 µM | ≤ 1 µM | 
Cc1ccn(C(C)c2nnc(Nc3ccn(Cc4cccc(Cl)c4F)n3)s2)n1 (stereo not drawn) [Example 14, N-{1-[(3-chloro-2-fluorophenyl)methyl]-1H-pyrazol-3-yl}-5-[1-(3-methyl-1H-pyrazol-1-yl)ethyl]-1,3,4-thiadiazol-2-amine] | < 0.12 µM | 1 to 4 µM (≈ 0.418 to 1.67 µg/mL) | 
Cc1ccn(C(C)c2nnc(Nc3ccn(Cc4cccc(F)c4F)n3)s2)n1 (stereo not drawn) [Example 15, N-{1-[(2,3-difluorophenyl)methyl]-1H-pyrazol-3-yl}-5-[1-(3-methyl-1H-pyrazol-1-yl)ethyl]-1,3,4-thiadiazol-2-amine] | < 0.125 µM | 1 to 4 µM (≈ 0.401 to 1.61 µg/mL) | 
Cc1csc(C(C)c2nnc(Nc3ccn(Cc4cccc(F)c4F)n3)s2)n1 (stereo not drawn) [Example 16, N-{1-[(2,3-difluorophenyl)methyl]-1H-pyrazol-3-yl}-5-[1-(4-methyl-1,3-thiazol-2-yl)ethyl]-1,3,4-thiadiazol-2-amine] | < 0.119 µM | 1 to 4 µM (≈ 0.418 to 1.67 µg/mL) | 
Cc1cc(C)n(C(C)c2nnc(Nc3ccn(Cc4ccc(F)cc4Cl)n3)s2)n1 (stereo not drawn) [Example 17, N-{1-[(2-chloro-4-fluorophenyl)methyl]-1H-pyrazol-3-yl}-5-[1-(3,5-dimethyl-1H-pyrazol-1-yl)ethyl]-1,3,4-thiadiazol-2-amine] |  | > 10 µM | 0.116 to 0.232 µM
Cc1ccn(C(C)c2nnc(Nc3ccn(Cc4ccc(F)cc4Cl)n3)s2)n1 (stereo not drawn) [Example 18, N-{1-[(2-chloro-4-fluorophenyl)methyl]-1H-pyrazol-3-yl}-5-[1-(3-methyl-1H-pyrazol-1-yl)ethyl]-1,3,4-thiadiazol-2-amine] |  | > 10 µM | 0.12 to 0.239 µM
Cc1cc(C)n(C(C)c2nnc(Nc3cc(C)n(Cc4c(F)cccc4Cl)n3)s2)n1 (stereo not drawn) [Example 19, N-{1-[(2-chloro-6-fluorophenyl)methyl]-5-methyl-1H-pyrazol-3-yl}-5-[1-(3,5-dimethyl-1H-pyrazol-1-yl)ethyl]-1,3,4-thiadiazol-2-amine] | < 0.112 µM | 1 to 4 µM (≈ 0.446 to 1.78 µg/mL) | 
Cc1cc(C)n(C(C)c2nnc(Nc3ccn(Cc4ccccc4C)n3)s2)n1 (stereo not drawn) [Example 20, 5-[1-(3,5-dimethyl-1H-pyrazol-1-yl)ethyl]-N-{1-[(2-methylphenyl)methyl]-1H-pyrazol-3-yl}-1,3,4-thiadiazol-2-amine] | < 0.127 µM | 1 to 4 µM (≈ 0.394 to 1.57 µg/mL) | 
Cc1cc(C)n(C(C)c2nnc(Nc3ccn(Cc4ccccc4)n3)s2)n1 (stereo not drawn) [Example 21, 5-[1-(3,5-dimethyl-1H-pyrazol-1-yl)ethyl]-N-[1-(phenylmethyl)-1H-pyrazol-3-yl]-1,3,4-thiadiazol-2-amine] | < 0.132 µM | 4 to 10 µM (≈ 1.52 to 3.79 µg/mL) | 
Cc1cc(C)n(C(C)c2nnc(Nc3ccn(Cc4c(Cl)ccc(C)c4F)n3)s2)n1 (stereo not drawn) [Example 22, N-{1-[(6-chloro-2-fluoro-3-methylphenyl)methyl]-1H-pyrazol-3-yl}-5-[1-(3,5-dimethyl-1H-pyrazol-1-yl)ethyl]-1,3,4-thiadiazol-2-amine] | < 0.112 µM | 1 to 4 µM (≈ 0.446 to 1.78 µg/mL) | 
Cc1cc(C)n(C(C)c2nnc(Nc3ccn(Cc4c(F)ccc(C)c4Cl)n3)s2)n1 (stereo not drawn) [Example 23, N-{1-[(2-chloro-6-fluoro-3-methylphenyl)methyl]-1H-pyrazol-3-yl}-5-[1-(3,5-dimethyl-1H-pyrazol-1-yl)ethyl]-1,3,4-thiadiazol-2-amine] | < 0.112 µM | ≤ 1 µM | 
Cc1cc(C)n(C(C)c2nnc(Nc3ccn(Cc4cccc(C)c4F)n3)s2)n1 (stereo not drawn) [Example 24, 5-[1-(3,5-dimethyl-1H-pyrazol-1-yl)ethyl]-N-{1-[(2-fluoro-3-methylphenyl)methyl]-1H-pyrazol-3-yl}-1,3,4-thiadiazol-2-amine] | < 0.122 µM | ≤ 1 µM | 
Cc1csc(C(C)c2nnc(Nc3ccn(Cc4cccc(C)c4F)n3)s2)n1 (stereo not drawn) [Example 25, N-{1-[(2-fluoro-3-methylphenyl)methyl]-1H-pyrazol-3-yl}-5-[1-(4-methyl-1,3-thiazol-2-yl)ethyl]-1,3,4-thiadiazol-2-amine] | < 0.121 µM | 1 to 4 µM (≈ 0.415 to 1.66 µg/mL) | 
Cc1cc(C)n(C(C)c2nnc(Nc3ccn(Cc4cc(N)ccc4Cl)n3)s2)n1 (stereo not drawn) [Example 26, N-{1-[(5-amino-2-chlorophenyl)methyl]-1H-pyrazol-3-yl}-5-[1-(3,5-dimethyl-1H-pyrazol-1-yl)ethyl]-1,3,4-thiadiazol-2-amine] | < 0.117 µM | > 10 µM | 
Cc1cc(C)n(C(C)c2nnc(Nc3ccn(Cc4cccc(N)c4C)n3)s2)n1 (stereo not drawn) [Example 27, N-{1-[(3-amino-2-methylphenyl)methyl]-1H-pyrazol-3-yl}-5-[1-(3,5-dimethyl-1H-pyrazol-1-yl)ethyl]-1,3,4-thiadiazol-2-amine] | < 0.122 µM | 4 to 10 µM (≈ 1.63 to 4.09 µg/mL) | 
Cc1csc(C(C)c2nnc(Nc3ccn(Cc4c(F)cccc4Cl)n3)s2)n1 (stereo not drawn) [Example 29, N-{1-[(2-chloro-6-fluorophenyl)methyl]-1H-pyrazol-3-yl}-5-[1-(4-methyl-1,3-thiazol-2-yl)ethyl]-1,3,4-thiadiazol-2-amine] | < 0.115 µM | 1 to 4 µM (≈ 0.435 to 1.74 µg/mL) | 
CC(c1nc(C(F)(F)F)cs1)c1nnc(Nc2ccn(Cc3c(F)cccc3Cl)n2)s1 (stereo not drawn) [Example 31, N-{1-[(2-chloro-6-fluorophenyl)methyl]-1H-pyrazol-3-yl}-5-{1-[4-(trifluoromethyl)-1,3-thiazol-2-yl]ethyl}-1,3,4-thiadiazol-2-amine] | < 0.102 µM | > 10 µM | 
Cc1csc(Cc2nnc(Nc3ccn(Cc4c(F)cccc4Cl)n3)s2)n1 [Example 32, N-{1-[(2-chloro-6-fluorophenyl)methyl]-1H-pyrazol-3-yl}-5-[(4-methyl-1,3-thiazol-2-yl)methyl]-1,3,4-thiadiazol-2-amine] | < 0.119 µM | 4 to 10 µM (≈ 1.68 to 4.21 µg/mL) | 
Cc1csc(C(C)c2nnc(Nc3ccn(Cc4cccc(Cl)c4F)n3)s2)n1 (stereo not drawn) [Example 33, N-{1-[(3-chloro-2-fluorophenyl)methyl]-1H-pyrazol-3-yl}-5-[1-(4-methyl-1,3-thiazol-2-yl)ethyl]-1,3,4-thiadiazol-2-amine] | < 0.115 µM | 1 to 4 µM (≈ 0.435 to 1.74 µg/mL) | 
Cc1cc(C)n(C(C)c2nnc(Nc3ccn(Cc4ccc(Cl)cc4)n3)s2)n1 (stereo not drawn) [Example 34, N-{1-[(4-chlorophenyl)methyl]-1H-pyrazol-3-yl}-5-[1-(3,5-dimethyl-1H-pyrazol-1-yl)ethyl]-1,3,4-thiadiazol-2-amine] |  | 4 to 10 µM (≈ 1.66 to 4.14 µg/mL) | 0.121 to 0.242 µM
Cc1cc(C)n(C(C)c2nnc(Nc3ccn(Cc4ccc(C(F)(F)F)cc4)n3)s2)n1 (stereo not drawn) [Example 35, 5-[1-(3,5-dimethyl-1H-pyrazol-1-yl)ethyl]-N-(1-{[4-(trifluoromethyl)phenyl]methyl}-1H-pyrazol-3-yl)-1,3,4-thiadiazol-2-amine] |  | > 10 µM | 0.223 to 1.12 µM
Cc1cc(C)n(C(C)c2nnc(Nc3ccn(Cc4cc(F)ccc4Cl)n3)s2)n1 (stereo not drawn) [Example 36, N-{1-[(2-chloro-5-fluorophenyl)methyl]-1H-pyrazol-3-yl}-5-[1-(3,5-dimethyl-1H-pyrazol-1-yl)ethyl]-1,3,4-thiadiazol-2-amine] | < 0.116 µM | 4 to 10 µM (≈ 1.73 to 4.32 µg/mL) | 
Cc1cc(C)n(Cc2cnc(Nc3ccn(Cc4c(F)cccc4Cl)n3)s2)n1 [Example 37, N-{1-[(2-chloro-6-fluorophenyl)methyl]-1H-pyrazol-3-yl}-5-[(3,5-dimethyl-1H-pyrazol-1-yl)methyl]-1,3-thiazol-2-amine] | < 0.12 µM | 4 to 10 µM (≈ 1.67 to 4.17 µg/mL) | 
Cc1ccn(Cc2nnc(Nc3ccn(Cc4c(F)cccc4Cl)n3)s2)n1 [Example 39, N-{1-[(2-chloro-6-fluorophenyl)methyl]-1H-pyrazol-3-yl}-5-[(3-methyl-1H-pyrazol-1-yl)methyl]-1,3,4-thiadiazol-2-amine] | < 0.124 µM | 1 to 4 µM (≈ 0.404 to 1.62 µg/mL) | 
Cc1cc([N+](=O)[O-])nn1C(C)c1nnc(Nc2ccn(Cc3ccccc3Cl)n2)s1 (stereo not drawn) [Example 40, N-{1-[(2-chlorophenyl)methyl]-1H-pyrazol-3-yl}-5-[1-(5-methyl-3-nitro-1H-pyrazol-1-yl)ethyl]-1,3,4-thiadiazol-2-amine] | < 0.112 µM | 1 to 4 µM (≈ 0.445 to 1.78 µg/mL) | 
Cc1cc(C(F)F)nn1C(C)c1nnc(Nc2ccn(Cc3ccccc3Cl)n2)s1 (stereo not drawn) [Example 41, N-{1-[(2-chlorophenyl)methyl]-1H-pyrazol-3-yl}-5-{1-[3-(difluoromethyl)-5-methyl-1H-pyrazol-1-yl]ethyl}-1,3,4-thiadiazol-2-amine] | < 0.111 µM | 4 to 10 µM (≈ 1.8 to 4.5 µg/mL) | 
Cc1ccn(C(C)c2nnc(Nc3ccn(Cc4ccccc4Cl)n3)s2)n1 (stereo not drawn) [Example 42, N-{1-[(2-chlorophenyl)methyl]-1H-pyrazol-3-yl}-5-[1-(3-methyl-1H-pyrazol-1-yl)ethyl]-1,3,4-thiadiazol-2-amine] | < 0.125 µM | 1 to 4 µM (≈ 0.4 to 1.6 µg/mL) | 
